Experimental data reported in US12091409B2, “Ether linked triazoles as NRF2 activators” (ASTEX THERAPEUTICS LIMITED, priority 2016, dated 2024).

These compounds were tested on NQO1 specific enzyme activity in BEAS-2B cells (marker for NRF2 activation) (assay: BEAS-2B NQO1 MTT Assay). Conditions: Homo sapiens, BEAS-2B, 48 h, NQO1 specific activity induction, 48 hours with compound.
Type: cell-based
Procedure, shortened: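 Following 48 h compound treatment at 37° C., 5% CO2, cells were lysed and MTT cocktail added. Product formation was followed kinetically at 570 nm for 30 min. Rate (Delta OD/min) against log concentration was fitted with 3 parameters to give pEC50 for induction of NQO1 specific activity.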

SMILES	EC50
CC[C@@H]1CN(Cc2cc(C(OCc3cn(Cc4ccccc4)nn3)C(C)(C)C(=O)O)ccc2C)S(=O)(=O)c2ccccc2O1 (stereo partly drawn) [Example 7, 3-((1-Benzyl-1H-1,2,3-triazol-4-yl)methoxy)-3-(3-(((R)-4-ethyl-1,1-dioxido-3,4-dihydro-2H-benzo[b][1,4,5]oxathiazepin-2-yl)methyl)-4-methylphenyl)-2,2-dimethylpropanoic acid]	< 1 nM
CCn1cc(CO[C@H](c2ccc(C)c(CN3C[C@H](C)Cc4ccncc4S3(=O)=O)c2)C(C)(C)C(=O)O)nn1 [Example 66, (3R)-((1-ethyl-1H-1,2,3-triazol-4-yl)methoxy)-2,2-dimethyl-3-(4-methyl-3-(((R)-4-methyl-1,1-dioxido-4,5-dihydropyrido[4,3-f][1,2]thiazepin-2(3H)-yl)methyl)phenyl)propanoic acid]	100 to 1000 nM
Cc1ccc(C(OCc2cn(Cc3cccc(Cn4cc(CCCCO)nn4)c3)nn2)C(C)(C)C(=O)O)cc1CN1C[C@@H](C)Oc2ccccc2S1(=O)=O (stereo partly drawn) [Example 42, 3-((1-(3-((4-(4-Hydroxybutyl)-1H-1,2,3-triazol-1-yl)methyl)benzyl)-1H-1,2,3-triazol-4-yl)methoxy)-2,2-dimethyl-3-(4-methyl-3-(((R)-4-methyl-1,1-dioxido-3,4-dihydro-2H-benzo[b][1,4,5]oxathiazepin-2-yl)methyl)phenyl)propanoic acid]	10 to 100 nM
CC[C@@H]1CN(Cc2cc([C@H](OCc3cn(C4COC4)nn3)C(C)(C)C(=O)O)ccc2C)S(=O)(=O)c2ccccc2O1 [Example 105]	1 to 10 nM
CC[C@@H]1CN(Cc2cc(C(OCc3cn(CCOC)nn3)C(C)(C)C(=O)O)ccc2C)S(=O)(=O)c2ccccc2O1 (stereo partly drawn) [Example 106, 3-(3-(((R)-4-ethyl-1,1-dioxido-3,4-dihydro-2H-benzo[b][1,4,5]oxathiazepin-2-yl)methyl)-4-methylphenyl)-3-((1-(2-methoxyethyl)-1H-1,2,3-triazol-4-yl)methoxy)-2,2-dimethylpropanoic acid]	< 1 nM
CCCn1cc(CO[C@H](c2ccc(C)c(CN3C[C@H](C)Cc4ccc(C(F)(F)F)cc4S3(=O)=O)c2)C(C)(C)C(=O)O)nn1 [Example 79, (R)-2,2-dimethyl-3-(4-methyl-3-(((R)-4-methyl-1,1-dioxido-8-(trifluoromethyl)-4,5-dihydrobenzo[f][1,2]thiazepin-2(3H)-yl)methyl)phenyl)-3-((1-propyl-1H-1,2,3-triazol-4-yl)methoxy)propanoic acid]	1 to 10 nM
CCCn1cc(CO[C@H](c2ccc(C)c(CN3C[C@@H](CC)Oc4ccccc4S3(=O)=O)c2)C(C)(C)C(=O)O)nn1 [Example 90, (R)-3-(3-(((R)-4-ethyl-1,1-dioxido-3,4-dihydro-2H-benzo[b][1,4,5]oxathiazepin-2-yl)methyl)-4-methylphenyl)-2,2-dimethyl-3-((1-propyl-1H-1,2,3-triazol-4-yl)methoxy)propanoic acid]	< 1 nM
CCn1cc(CO[C@H](c2ccc(C)c(CN3C[C@H](C)Cc4ccccc4S3(=O)=O)c2)C(C)(C)C(=O)O)nn1 [Example 70, (3R)-((1-ethyl-1H-1,2,3-triazol-4-yl)methoxy)-2,2-dimethyl-3-(4-methyl-3-(((R)-4-methyl-1,1-dioxido-4,5-dihydrobenzo[f][1,2]thiazepin-2(3H)-yl)methyl)phenyl)propanoic acid]	10 to 100 nM
CC[C@@H]1CN(Cc2cc(C(OCc3cn(CC)nn3)C(C)(C)C(=O)O)ccc2C)S(=O)(=O)c2ccccc2O1 (stereo partly drawn) [Example 10, 3-(3-(((R)-4-ethyl-1,1-dioxido-3,4-dihydro-2H-benzo[b][1,4,5]oxathiazepin-2-yl)methyl)-4-methylphenyl)-3-((1-ethyl-1H-1,2,3-triazol-4-yl)methoxy)-2,2-dimethylpropanoic acid]	< 1 nM
CCn1cc(CO[C@@H](c2ccc(C)c(CN3C[C@@H](C)Cc4ccccc4S3(=O)=O)c2)C(C)(C)C(=O)O)nn1 [Example 75, (3S)-((1-ethyl-1H-1,2,3-triazol-4-yl)methoxy)-2,2-dimethyl-3-(4-methyl-3-(((S)-4-methyl-1,1-dioxido-4,5-dihydrobenzo[f][1,2]thiazepin-2(3H)-yl)methyl)phenyl)propanoic acid]	1 to 10 nM
CC[C@@H]1CN(Cc2cc(C(OCc3cn(Cc4cccc(Cn5cc(COC(c6ccc(C)c(CN7C[C@@H](CC)Oc8ccccc8S7(=O)=O)c6)C(C)(C)C(=O)O)nn5)c4)nn3)C(C)(C)C(=O)O)ccc2C)S(=O)(=O)c2ccccc2O1 (stereo partly drawn) [Example 47, (R)-3,3′-(((1,1′-(1,3-phenylenebis(methylene))bis(1H-1,2,3-triazole-4,1-diyl))bis(methylene))bis(oxy))bis(3-(3-(((R)-4-ethyl-1,1-dioxido-3,4-dihydro-2H-benzo[b][1,4,5]oxathiazepin-2-yl)methyl)-4-methylphenyl)-2,2-dimethylpropanoic acid)]	10 to 100 nM
CC[C@@H]1CN(Cc2cc([C@@H](OCc3cn(C)nn3)C(C)(C)C(=O)O)ccc2C)S(=O)(=O)c2ccccc2O1 [Example 120, (R)-3-(3-(((R)-4-Ethyl-1,1-dioxido-3,4-dihydro-2H-benzo[b][1,4,5]oxathiazepin-2-yl)methyl)-4-methylphenyl)-2,2-dimethyl-3-((1-methyl-1H-1,2,3-triazol-4-yl)methoxy)propanoic acid]	< 1 nM
CCCn1cc(CO[C@H](c2ccc(C)c(CN(Cc3cccc(C(=O)O)c3)S(=O)(=O)c3cccc(C(=O)O)c3)c2)C(C)(C)C(=O)O)nn1 [Example 92, (R)-3-(N-(5-(2-carboxy-2-methyl-1-((1-propyl-1H-1,2,3-triazol-4-yl)methoxy)propyl)-2-methylbenzyl)-N-(3-carboxybenzyl)sulfamoyl)benzoic acid]	1000 to 10000 nM
CCCn1cc(CO[C@H](c2ccc(C)c(CN3C[C@@H](C)Cc4ccncc4S3(=O)=O)c2)C(C)(C)C(=O)O)nn1 [Example 83, (R)-2,2-dimethyl-3-(4-methyl-3-(((S)-4-methyl-1,1-dioxido-4,5-dihydropyrido[4,3-f][1,2]thiazepin-2(3H)-yl)methyl)phenyl)-3-((1-propyl-1H-1,2,3-triazol-4-yl)methoxy)propanoic acid]	< 1 nM
CCCn1cc(COC(c2ccc(C)c(CN3C[C@@H](C)Oc4ccccc4S3(=O)=O)c2)C(C)(C)C(=O)O)nn1 (stereo partly drawn) [Example 8, 2,2-Dimethyl-3-(4-methyl-3-(((R)-4-methyl-1,1-dioxido-3,4-dihydro-2H-benzo[b][1,4,5]oxathiazepin-2-yl)methyl)phenyl)-3-((1-propyl-1H-1,2,3-triazol-4-yl)methoxy)propanoic acid]	1 to 10 nM
CC[C@@H]1CN(Cc2cc([C@@H](OCc3cn(CC)nn3)C(C)(C)C(=O)O)ccc2C)S(=O)(=O)c2ccccc2O1 [Example 5, (R)-3-(3-(((R)-4-ethyl-1,1-dioxido-3,4-dihydro-2H-benzo[b][1,4,5]oxathiazepin-2-yl)methyl)-4-methylphenyl)-3-((1-ethyl-1H-1,2,3-triazol-4-yl)methoxy)-2,2-dimethylpropanoic acid]	< 1 nM
Cc1ccc(C(OCc2cn(Cc3cccc(-c4ccc(C(=O)O)cc4)c3)nn2)C(C)(C)C(=O)O)cc1CN1C[C@@H](C)Oc2ccccc2S1(=O)=O (stereo partly drawn) [Example 25, 3′-((4-((2-Carboxy-2-methyl-1-(4-methyl-3-(((R)-4-methyl-1,1-dioxido-3,4-dihydro-2H-benzo[b][1,4,5]oxathiazepin-2-yl)methyl)phenyl)propoxy)methyl)-1H-1,2,3-triazol-1-yl)methyl)-[1,1′-biphenyl]-4-carboxylic acid]	10 to 100 nM
Cc1ccc(C(OCc2cn(Cc3cccc(Cn4cc(C(C)(C)O)nn4)c3)nn2)C(C)(C)C(=O)O)cc1CN1C[C@@H](C)Oc2ccccc2S1(=O)=O (stereo partly drawn) [Example 41, 3-((1-(3-((4-(2-Hydroxypropan-2-yl)-1H-1,2,3-triazol-1-yl)methyl)benzyl)-1H-1,2,3-triazol-4-yl)methoxy)-2,2-dimethyl-3-(4-methyl-3-(((R)-4-methyl-1,1-dioxido-3,4-dihydro-2H-benzo[b][1,4,5]oxathiazepin-2-yl)methyl)phenyl)propanoic acid]	10 to 100 nM
CC[C@H]1Cc2ccccc2S(=O)(=O)N(Cc2cc([C@@H](OCc3cn(CC)nn3)C(C)(C)C(=O)O)ccc2C)C1 [Example 85, (3R)-((1-ethyl-1H-1,2,3-triazol-4-yl)methoxy)-2,2-dimethyl-3-(4-methyl-3-(((S)-4-ethyl-1,1-dioxido-4,5-dihydrobenzo[f][1,2]thiazepin-2(3H)-yl)methyl)phenyl)propanoic acid]	< 1 nM
CCn1cc(COC(c2ccc(C)c(CN(Cc3ccccn3)S(=O)(=O)c3cccc(Br)c3)c2)C(C)(C)C(=O)O)nn1 (centres unmarked) [Example 74, 3-(3-(((3-Bromo-N-(pyridin-2-ylmethyl)phenyl)sulfonamido)methyl)-4-methylphenyl)-3-((1-ethyl-1H-1,2,3-triazol-4-yl)methoxy)-2,2-dimethylpropanoic acid]	10 to 100 nM
CC[C@@H]1CN(Cc2cc([C@@H](OCc3cn(CC)nn3)C(C)(C)C(=O)O)ccc2C)S(=O)(=O)c2ncccc2O1 [Example 82, (R)-3-(3-(((R)-4-ethyl-1,1-dioxido-3,4-dihydro-2H-pyrido[3,2-b][1,4,5]oxathiazepin-2-yl)methyl)-4-methylphenyl)-3-((1-ethyl-1H-1,2,3-triazol-4-yl)methoxy)-2,2-dimethylpropanoic acid]	1 to 10 nM
CCn1cc(COC(c2ccc(C)c(CN3C[C@@H](C)Oc4ccccc4S3(=O)=O)c2)C(C)(C)C(=O)O)nn1 (stereo partly drawn) [Example 11, 3-((1-Ethyl-1H-1,2,3-triazol-4-yl)methoxy)-2,2-dimethyl-3-(4-methyl-3-(((R)-4-methyl-1,1-dioxido-3,4-dihydro-2H-benzo[b][1,4,5]oxathiazepin-2-yl)methyl)phenyl)propanoic acid]	1 to 10 nM

Same assay, conditions: NQO1 specific activity induction, 48 hours with compound

SMILES	EC50
Cc1ccc(C(OCc2cn(CC(C)C)nn2)C(C)(C)C(=O)O)cc1CN1C[C@@H](C)Oc2ccccc2S1(=O)=O (single isomer, unassigned) [Example 16]	10 to 100 nM
